Literature values as cited in patent EP2566463B1, “EXTENDED RELEASE THIOCO[…]” (Ali Raif Ilac Sanayi Ve Ticaret A.S., priority 2010, dated 2011).

Assays:
[1] = conventional, immediate release forms of thiocolchicoside
[2] = conventional, immediate release forms

Compound | Elimination half life in plasma [1] [h] | muscle relaxing effect starts [2] [h]
N-[3-(β-D-glucopyranosyloxy)-1,2-dimethoxy-10-(methylthio)-9-oxo-5,6,7,9-tetrahydrobenzo[a]heptalen-7-yl]acetamide [thiocolchicoside] | 4 to 5 | 1 to 2
COc1c(O)cc2c(c1OC)-c1ccc(SC)c(=O)cc1C(NC(C)=O)CC2 (stereo not drawn) [3-Desmethylthiocolchicine] | 4 to 5 | –
